Experimental data: ChEMBL document CHEMBL1129830, “A convenient synthesis of pseudoceratidine and three analogs for biological evaluation” (1997)
≈ marks a conversion by molar mass, not a printed value.

Columns and labels:
Format in all cases: functional
Escherichia coli = assay: Compound was evaluated for minimal inhibitory concentration against Escherichia coli
Pseudomonas aeruginosa [1] = assay: Compound was evaluated for minimal inhibitory concentration against Pseudomonas aeruginosa
Staphylococcus aureus = assay: Compound was evaluated for minimal inhibitory concentration against Staphylococcus aureus
Serratia liquefaciens [2] = assay: Compound was evaluated for minimal inhibitory concentration against Serratia liquefaciens
Listeria monocytogenes = assay: Compound was evaluated for minimal inhibitory concentration against Listeria monocytogenes
Serratia liquefaciens [3] = assay: Compound was evaluated for minimal inhibitory concentration against Serratia liquefaciens; Growth delayed by concentrations >= 100 ug/ml
Serratia liquefaciens [4] = assay: Compound was evaluated for minimal inhibitory concentration against Serratia liquefaciens; Growth delayed by concentrations >= 50 ug/ml and almost totally inhibited by 500 ug/ml
Pseudomonas aeruginosa [5] = assay: Compound was evaluated for minimal inhibitory concentration against Pseudomonas aeruginosa; Growth delayed by concentrations >= 50 ug/ml and almost totally inhibited by 500 ug/ml

Row | SMILES | MIC (Escherichia coli) | MIC (Pseudomonas aeruginosa [1]) | MIC (Staphylococcus aureus) | MIC (Serratia liquefaciens [2]) | MIC (Listeria monocytogenes) | MIC (Serratia liquefaciens [3]) | MIC (Serratia liquefaciens [4]) | MIC (Pseudomonas aeruginosa [5])
1 | O=C(NCCCCNCCCNC(=O)c1cc(Br)c[nH]1)c1cc(Br)c[nH]1 | 250 µg/mL (≈ 511 µM) | > 500 µg/mL | 100 µg/mL (≈ 204 µM) | > 500 µg/mL | 250 µg/mL (≈ 511 µM) |  |  | 
2 | O=C(NCCCNCCCNC(=O)c1cc(Br)c(Br)[nH]1)c1cc(Br)c(Br)[nH]1 | 50 µg/mL (≈ 79 µM) | 100 µg/mL (≈ 158 µM) | 10 µg/mL (≈ 15.8 µM) |  | 10 µg/mL (≈ 15.8 µM) | > 500 µg/mL |  | 
3 | O=C(NCCNCCNCCNC(=O)c1cc(Br)c(Br)[nH]1)c1cc(Br)c(Br)[nH]1 | 100 µg/mL (≈ 154 µM) |  | 50 µg/mL (≈ 77.2 µM) |  | 50 µg/mL (≈ 77.2 µM) |  | > 500 µg/mL | > 500 µg/mL
4 | O=C(NCCCCNCCCNC(=O)c1cc(Br)c(Br)[nH]1)c1cc(Br)c(Br)[nH]1 | 50 µg/mL (≈ 77.3 µM) | 250 µg/mL (≈ 386 µM) | 5 µg/mL (≈ 7.73 µM) | > 500 µg/mL | 5 µg/mL (≈ 7.73 µM) |  |  | 
